Test system: 276233-004-R-J1-PDC complex spheroid viability
Test: Anticancer human tumor 276233-004-R-J1-PDC patient-derived colon adenocarcinoma cell line growth inhibition [GQUAD]
Conditions: for IC50: curve of first compound; for viability, T/C: stronger effect = lower value
Method in brief: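 Multi-cell-type spheroids of tumor cells with HUVEC and mesenchymal stem cells, treated with drug combinations. Concentrations descend in half-log steps from near clinical Cmax, or from 10 microM where Cmax is unknown; viability read-out.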

[1] = second compound 0.0316 µM, first compound 0.0316 µM
[2] = second compound 0.0316 µM, first compound 0.1 µM
[3] = second compound 0.0316 µM, first compound 0.316 µM
[4] = second compound 0.0316 µM, first compound 1 µM
[5] = second compound 0.0316 µM, first compound 3.16 µM
[6] = second compound 0.0316 µM, first compound 10 µM
[7] = second compound 0.1 µM, first compound 0.0316 µM
[8] = second compound 0.1 µM, first compound 0.1 µM
[9] = second compound 0.1 µM, first compound 0.316 µM
[10] = second compound 0.1 µM, first compound 1 µM
[11] = second compound 0.1 µM, first compound 3.16 µM
[12] = second compound 0.1 µM, first compound 10 µM
[13] = second compound 0.316 µM, first compound 0.0316 µM
[14] = second compound 0.316 µM, first compound 0.1 µM
[15] = second compound 0.316 µM, first compound 0.316 µM
[16] = second compound 0.316 µM, first compound 1 µM
[17] = second compound 0.316 µM, first compound 3.16 µM
[18] = second compound 0.316 µM, first compound 10 µM
[19] = second compound 1 µM, first compound 0.0316 µM
[20] = second compound 1 µM, first compound 0.1 µM
[21] = second compound 1 µM, first compound 0.316 µM
[22] = second compound 1 µM, first compound 1 µM
[23] = second compound 1 µM, first compound 3.16 µM
[24] = second compound 1 µM, first compound 10 µM
[25] = second compound 3.16 µM, first compound 0.0316 µM
[26] = second compound 3.16 µM, first compound 0.1 µM
[27] = second compound 3.16 µM, first compound 0.316 µM
[28] = second compound 3.16 µM, first compound 1 µM
[29] = second compound 3.16 µM, first compound 3.16 µM
[30] = second compound 3.16 µM, first compound 10 µM
[31] = second compound 10 µM, first compound 0.0316 µM
[32] = second compound 10 µM, first compound 0.1 µM
[33] = second compound 10 µM, first compound 0.316 µM
[34] = second compound 10 µM, first compound 1 µM
[35] = second compound 10 µM, first compound 3.16 µM
[36] = second compound 10 µM, first compound 10 µM
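Also: spheroids exposed to drugs for seven days.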
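For viability, T/C in this document: 100% = DMSO vehicle control viability.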

Structure (SMILES): C=CCn1c(=O)c2cnc(Nc3ccc(N4CCN(C)CC4)cc3)nc2n1-c1cccc(C(C)(C)O)n1 + Cc1cnc(CNC(=O)c2c(=O)c3ccc(N4CCCN(C)CC4)nc3n3c2sc2ccccc23)cn1
- IC50 (second compound 0.0316 µM): > 10 µM
- IC50 (second compound 0.1 µM): > 10 µM
- IC50 (second compound 0.316 µM): > 10 µM
- IC50 (second compound 1 µM): > 10 µM
- IC50 (second compound 3.16 µM): > 10 µM
- IC50 (second compound 10 µM): 8.24 µM
- viability, T/C [1]: 93.4%
- viability, T/C [2]: 70.5%
- viability, T/C [3]: 64.3%
- viability, T/C [4]: 65.9%
- viability, T/C [5]: 69.1%
- viability, T/C [6]: 78%
- viability, T/C [7]: 75.9%
- viability, T/C [8]: 86%
- viability, T/C [9]: 80.2%
- viability, T/C [10]: 72.2%
- viability, T/C [11]: 73.1%
- viability, T/C [12]: 67.8%
- viability, T/C [13]: 89.8%
- viability, T/C [14]: 82.1%
- viability, T/C [15]: 76%
- viability, T/C [16]: 61.3%
- viability, T/C [17]: 66%
- viability, T/C [18]: 61.9%
- viability, T/C [19]: 76.1%
- viability, T/C [20]: 83%
- viability, T/C [21]: 76.5%
- viability, T/C [22]: 67.9%
- viability, T/C [23]: 62%
- viability, T/C [24]: 62.4%
- viability, T/C [25]: 76.5%
- viability, T/C [26]: 71.5%
- viability, T/C [27]: 59.6%
- viability, T/C [28]: 55.4%
- viability, T/C [29]: 52.5%
- viability, T/C [30]: 58%
- viability, T/C [31]: 57.8%
- viability, T/C [32]: 66.1%
- viability, T/C [33]: 65.6%
- viability, T/C [34]: 54.9%
- viability, T/C [35]: 58.6%
- viability, T/C [36]: 48.4%

Structure (SMILES): COc1ncnc(C2CC2)c1-c1ncc2cnn(Cc3ccc(-c4nc(C(F)(F)F)cn4C(C)C)cc3)c2n1 + Cc1cnc(CNC(=O)c2c(=O)c3ccc(N4CCCN(C)CC4)nc3n3c2sc2ccccc23)cn1
- IC50 (second compound 0.0316 µM): > 10 µM
- IC50 (second compound 0.1 µM): > 10 µM
- IC50 (second compound 0.316 µM): > 10 µM
- IC50 (second compound 1 µM): > 10 µM
- IC50 (second compound 3.16 µM): > 10 µM
- IC50 (second compound 10 µM): > 10 µM
- viability, T/C [1]: 81.9%
- viability, T/C [2]: 77.1%
- viability, T/C [3]: 66.1%
- viability, T/C [4]: 79.7%
- viability, T/C [5]: 86.2%
- viability, T/C [6]: 89%
- viability, T/C [7]: 76.2%
- viability, T/C [8]: 95.5%
- viability, T/C [9]: 83%
- viability, T/C [10]: 84.2%
- viability, T/C [11]: 76.9%
- viability, T/C [12]: 84.5%
- viability, T/C [13]: 87.3%
- viability, T/C [14]: 91.2%
- viability, T/C [15]: 83.4%
- viability, T/C [16]: 87.9%
- viability, T/C [17]: 78.4%
- viability, T/C [18]: 86.4%
- viability, T/C [19]: 84.6%
- viability, T/C [20]: 81.4%
- viability, T/C [21]: 81.5%
- viability, T/C [22]: 74.5%
- viability, T/C [23]: 74.8%
- viability, T/C [24]: 89.6%
- viability, T/C [25]: 76.1%
- viability, T/C [26]: 65.1%
- viability, T/C [27]: 80.5%
- viability, T/C [28]: 62.4%
- viability, T/C [29]: 64.5%
- viability, T/C [30]: 75.5%
- viability, T/C [31]: 67.9%
- viability, T/C [32]: 60.9%
- viability, T/C [33]: 64.3%
- viability, T/C [34]: 62.9%
- viability, T/C [35]: 69.6%
- viability, T/C [36]: 65.2%

From PubChem BioAssay AID2060496 (Molecular Pharmacology Branch, DTP, NCI, 2025)
